Measured values from patent US20160019374A1, “METHODS FOR ESTABLISHING COMBINATIONS OF KINASE INHIBITORS FOR THE TREATMENT OF MEDICAL CONDITIONS” (SALGOMED, INC., priority 2014, published 2016).

Assays:
[1] = tested on: A549 (lung adenocarcinoma); assay: Kinase inhibitor screen, selectivity = IMR-90 to A549 viability ratio (ATPlite 1 Step); conditions: single drugs at 1000 nM, 72 hours, 244 KIs screened, FIG. 2
Experimental: Cell lines IMR-90 (normal lung fibroblast) and A549 (lung adenocarcinoma) were cultured in RPMI 1640 (Hyclone) supplemented with 10% Canadian characterized fetal bovine serum (Hyclone), 1% 200 mM L-glutamine (Omega), and 1% penicillin/streptomycin (Omega). The media for the cells were renewed every 3 days and kept at 80-90% confluency. Cells were maintained in a humidified environment at 37° C. and 5% CO2.
IMR-90 (1500 cells/well) and A549 (750 cells/well) were seeded on 384-well microplates (Grenier Bio-One) and incubated for 3 hours before the addition of kinase inhibitor(s). The reason that IMR-90 was seeded at double the cell density of A549 is due to the difference in cell division. IMR-90's doubling time is 36-48 hours whereas A549's is 22 hours. […] Furthermore, both A549's and IMR-90's final confluency at 72 hrs is 90-95% and within the range of the ATPlite 1 step assay. ECHO 555 Liquid Handler (Labcyte) was used to dispense nanoliter volumes of each KI to 384-well plates with cells attached (wet dispense). The final volume in the plate is 40 uL and cells were incubated for 72 hours with KI treatment.
ATPlite 1 Step (Perkin Elmer) was used to evaluate the cell number and cytotoxicity. ATP measurements were done by dispensing 20 uL of the ATPlite 1 Step solution to each well to a final volume of 60 uL. The plate was placed on a shaker at 1100 rpm and the luminescence activity was detected by Analyst GT Plate Reader. The percent (%) of control is the quantity of ATPlite 1 step measurement of the treated versus the untreated wells of each individual cell type.
The 244 kinase inhibitors (KIs) of the EMD drug library were screened at 1000 nM individually and the treatment lasted for 72 hours.
where vN indicates the viability of normal cells (IMR90) after treatment, and vc the viability of cancer cells (A549) after treatment. […] For the other 243 KIs we used the standard dose of 1000 nM.

[2] = tested on: primary myoblasts; assay: Protection of primary myoblasts against 0.1% hypoxia (viability screen); type: cell-based; conditions: single-drug screening of EMD library
From the text: We used our method to predict synergistic effects between four kinase inhibitors: G13, O20, I15, and K10. […] Out of 244 drugs from the EMD library of kinase inhibitors, we first selected 58 drugs that have a positive effect on cell survivability against hypoxia. Single-drug screening results with these drugs were used as a training set to build a regression model that uses the kinase catalytic activity as predictor of the viability. The model assumed a dependence of the viability Vii of the form of Equation (V)

CC(C)c1nn(-c2c(Cl)cccc2Cl)c2nc(Cc3ccc(OCCO)cc3)[nH]c(=O)c12 [E20, Cdk/Crk In.]
selectivity rank in primary screen (IMR-90 to A549 viability ratio) [1]: top ten most selective

Nc1cccc(-c2cc3c(Oc4cccc(O)c4)ncnc3[nH]2)c1 [M16, GSK3b In. XII, TWS119]
selectivity rank in primary screen (IMR-90 to A549 viability ratio) [1]: top ten most selective

O=C1c2ccccc2-c2nc3nnnn3nc21 [A15, PDK1/Akt1/Flt3 Dual Pathway Inhibitor]
selectivity rank in primary screen (IMR-90 to A549 viability ratio) [1]: top ten most selective | selectivity rank in primary screen (IMR-90 to A549 viability ratio) ([1]; listed as PDK1/Akt1/Flt3 Dual Pathway Inhibitor): top hit

c1nc2nc(Nc3ccc(N4CCOCC4)cc3)nc(NC3CCCCC3)c2[nH]1 [N05, Reversine]
selectivity rank in primary screen (IMR-90 to A549 viability ratio) [1]: top ten most selective

Cc1cc(I)ccc1Nc1c(C(=O)NOCC2CC2)cc(F)c(F)c1F [H15, MEK1/2 In. II]
selectivity rank in primary screen (IMR-90 to A549 viability ratio) [1]: top ten most selective

O=C1c2ccccc2-[n+]2ccc3c([nH]c4ccccc43)c21 [G10, Fascaplysin, Synthetic]
selectivity rank in primary screen (IMR-90 to A549 viability ratio) [1]: top ten most selective

Cc1ccc([N+](=O)[O-])cc1S(=O)(=O)N(C)/N=C/c1cnc2ccc(Br)cn12.Cl [L13, PI 3-Kα In. VIII]
selectivity rank in primary screen (IMR-90 to A549 viability ratio) [1]: top ten most selective

NS(=O)(=O)c1ccc(N=Nc2c(O)[nH]c3ccc(Br)cc23)cc1 [D07, Cdk2 In. II]
selectivity rank in primary screen (IMR-90 to A549 viability ratio) [1]: top ten most selective

COc1ccc2c(c1)/C(=C/c1cnc[nH]1)C(=O)N2 [O20, SU9516]
protection of primary myoblasts against hypoxia [2]: protect primary myoblasts against 0.1% hypoxia | selectivity rank in primary screen (IMR-90 to A549 viability ratio) [1]: top ten most selective

Nc1nc(Nc2ccc(S(N)(=O)=O)cc2)nn1C(=S)Nc1c(F)cccc1F [C16, Cdk1/2 In. III]
selectivity rank in primary screen (IMR-90 to A549 viability ratio) [1]: top ten most selective
